melting point: 115 to 122 °C
SMILES: CCn1cnc2c(Nc3cccc(NC(=O)C#CCN4CCN(C)CC4)c3)nc(NC3CCC(O)CC3)nc21 (stereo not shown) [Example 112, 4-(4-Methyl-piperazin-1-yl)-but-2-ynoic acid {3-[9-ethyl-2-(4-hydroxy-cyclohexylamino)-9H-purin-6-ylamino]-phenyl)-amide]

From patent US6767906B2, “2-amino-6-anilino-purines and their use as medicaments” (Novartis AG, priority 1999, dated 2004)
